Results taken from patent US11597708B2, “Inhibitors of heat shock factors and uses thereof” (HSF Pharmaceuticals SA, priority 2016, dated 2023).
Structures can show the parent of a compound that is named as a salt. Where two headings read alike, the source gives them in different places.

Molecular target: T1, HSF1 (Homo sapiens, UniProt Q00613)
T1 construct: functionally linked to an hsp70b promoter and therefore controlled by endogenous HSF1; endogenous in cells; host or cells: HeLa cells / HeLa-derived cell line Z74
T1 sequence (Q00613 1-529): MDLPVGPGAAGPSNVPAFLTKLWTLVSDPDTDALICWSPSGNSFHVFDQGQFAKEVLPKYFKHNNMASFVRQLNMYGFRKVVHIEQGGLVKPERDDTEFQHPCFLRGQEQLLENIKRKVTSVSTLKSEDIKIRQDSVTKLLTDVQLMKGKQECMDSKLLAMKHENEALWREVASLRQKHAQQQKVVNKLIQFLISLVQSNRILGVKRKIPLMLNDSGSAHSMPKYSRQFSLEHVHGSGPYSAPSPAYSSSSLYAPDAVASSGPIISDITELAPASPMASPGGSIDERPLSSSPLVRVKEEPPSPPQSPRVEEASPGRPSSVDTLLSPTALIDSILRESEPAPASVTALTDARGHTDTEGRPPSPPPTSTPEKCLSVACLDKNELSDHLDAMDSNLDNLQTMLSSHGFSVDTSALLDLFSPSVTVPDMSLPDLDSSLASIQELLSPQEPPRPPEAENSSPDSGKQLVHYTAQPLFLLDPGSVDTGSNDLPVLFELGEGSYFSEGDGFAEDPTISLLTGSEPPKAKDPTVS
Assay: Z74 cell-based reporter assay: heat-induced RLuc expression controlled by endogenous HSF1
Details: for inhibition at 12.5 µM: read-out: Inhibition of HSF1 activity at 12.5 μM IHSF [RLuc] (%); for inhibition at 25 µM: read-out: Inhibition of HSF1 activity at 25 μM IHSF [RLuc] (%); for IC50: inhibition of HSF1 activity [RLuc]
Excerpt: For screening this sublibrary, a cell-based assay was developed. We opted for a cell-based assay, because a cell-free assay would have had to be a DNA-binding assay. Such an assay would have limited discovery to molecules capable of interfering with the DNA-binding function of HSF1. This was thought to be too narrow a focus, considering that three of the four cavities identified in the HSF1 DNA-binding domain are not near the DNA interaction region. A straightforward cell-based assay, in which a HSF1-responsive gene would be assayed, was considered likely to be over-inclusive. Compounds would be scored as hits that inhibit any factor that is involved in HSF1 activation or prevents HSF1 deactivation. These factors include protein kinases, activators of protein phosphatases, factors affecting HSF1 mRNA stability, HSP90, HDAC6, etc. For developing a more discriminating cell-based assay, advantage was taken of the modular nature of HSF1. […] The cell-based assay developed (see below for the particular format employed) compared transactivation by wild type HSF1 and chimeric HSF1 in cells exposed to an HSF1-activating heat treatment in the presence of a sublibrary compound. A compound was scored as a hit, if it inhibited the activity of wild type HSF1 but not of chimeric HSF1.
The cell-based assay made use of HeLa-derived cell line Z74 that stably contains a gene for chimeric transcription factor LexA-(human) HSF1 under the control of a CMV early promoter, a firefly luciferase (flue) gene driven by a promoter responsive to the latter chimeric transcription factor and a Renilla luciferase (rluc) gene functionally linked to an hsp70b promoter and therefore controlled by endogenous HSF1 (FIG. 1A). As is shown in FIGS. 1B & C, the reporter genes responded similarly to heat dose, i.e., their activation depended on both duration of heat exposure and temperature of the exposure. […] Depletion of HSF1 (and LexA-HSF1) by siRNA supported the notion that this stress regulation is mediated by HSF1 (and LexA-HSF1). Therefore, the Z74 line was well suited for use in a screening assay aimed at discovering molecules that inhibit heat-induced HSF1 activity through interaction with the transcription factor's DNA-binding domain.
The compounds of the afore-mentioned biased sublibrary were screened in cell line Z74 at 12.5 and 25 μM concentrations. Typically, Z74 cultures in 96-well plates were exposed to compound or vehicle for 2 h, heat-treated at 43.0° C. for 30 min, and incubated further for 6 h at 37° C. to allow for accumulation of the luciferases. RLuc and FLuc activities were determined, typically using the Dual-Glo® Luciferase Assay System (Promega Corp., Madison, Wis.), and reading luciferase light counts in a Wallac Microbeta Trilux-1450 Luminometer (PerkinElmer, Waltham, Mass.). IHSF 001 was one of two library compounds that inhibited RLuc expression but not FLuc expression in heat-treated Z74 cells (Table 1; FIG. 2A). Therefore, IHSF 001 is an inhibitor of HSF1 function that specifically acts through the HSF1 DNA-binding domain. […] A corroborating experiment utilized a cell line containing an hsp70b promoter-driven fluc gene. […] IHSF 001 is (E)-ethyl 4-oxo-4-(thiazol-2-ylamino)but-2-enoate. The compound can be obtained from commercial sources (e.g., AKE-PB-90340538, Akos).

[1] = Z74 cells, 12.5 μM IHSF, negative values marked *: compound enhanced rLuc activity
[2] = Z74 cells, 25 μM IHSF, 2 h exposure, 43° C. 30 min, 6 h at 37° C.

SMILES | inhibition at 12.5 µM | inhibition at 25 µM | inhibition at 12.5 µM [1] | inhibition at 25 µM [2] | IC50 (Z74 cells)
CCOC(=O)/C=C/C(=O)Nc1ccnc(N2CCOCC2)c1 [IHSF 077, (E)-3-(2-Morpholin-4-yl-pyridin-4-ylcarbamoyl)-acrylic acid ethyl ester formic acid salt] | 42% | 67% | – | – | –
CCOC(=O)/C=C/C(=O)Nc1ccon1 [IHSF 017, (E)-3-(Isoxazol-3-ylcarbamoyl)-acrylic acid ethyl ester] | – | – | 32% | 37% | –
O=C(/C=C/C1=NCCO1)Nc1nccs1 [IHSF 092, (E)-3-(4,5-Dihydro-oxazol-2-yl)-N-thiazol-2-yl-acrylamide] | – | – | 90% | 99% | 4.7 µM
CCNC(=O)/C=C/C(=O)Nc1nccs1 [IHSF 030, (E)-But-2-enedioic acid ethylamide thiazol-2-ylamide] | – | – | 5% | 18% | –
CCOC(=O)/C=C/C(=O)Nc1cc(C)no1 [IHSF 046, (E)-3-(3-Methyl-isoxazol-5-ylcarbamoyl)-acrylic acid ethyl ester] | – | – | 33% | 70% | –
CCOC(=O)/C=C/C(=O)Nc1ccnc(-c2cccc(C)c2)c1 [IHSF 080, (E)-3-(2-m-Tolyl-pyridin-4-ylcarbamoyl)-acrylic acid ethyl ester] | – | – | 55% | 71% | –
CCN(CC)C(=O)/C=C/C(=O)Nc1nc(C)cs1 [IHSF 060, (E)-But-2-enedioic acid diethyl-amide (4-methyl-thiazol-2-yl)-amide] | – | – | 16% | 19% | –
CC(C)NC(=O)/C=C/C(=O)Nc1nccs1 [IHSF 031, (E)-But-2-enedioic acid isopropylamide thiazol-2-ylamide] | – | – | 15% | 24% | –
CCOC(=O)/C=C/C(=O)Nc1ccncc1C [IHSF 083, (E)-3-(3-Methyl-pyridin-4-ylcarbamoyl)-acrylic acid ethyl ester] | – | – | 24% | 34% | –
CCOC(=O)/C=C/C(=O)Nc1ccnc(-c2ccncc2)c1 [IHSF 076, (E)-3-([2,4′]Bipyridinyl-4-ylcarbamoyl)-acrylic acid ethyl ester] | – | – | 56% | 66% | –
CCOC(=O)/C=C/C(=O)Nc1ccnc(-c2cccnc2)c1 [IHSF 086, (E)-3-([2,3′]Bipyridmyl-4-ylcarbamoyl)-acrylic acid ethyl ester] | – | – | 47% | 78% | –
CCCC(=O)/C=C/C(=O)Nc1nccs1 [IHSF 095, (E)-4-Oxo-N-(thiazol-2-yl)hept-2-enamide] | – | – | 6% | 44% | –
CCOC(=O)/C=C/C(=O)N(CCc1ccncc1)c1nccs1 [IHSF 099, (E)-3-[(2-Pyridin-4-yl-ethyl)-thiazol-2-yl-carbamoyl]-acrylic acid ethyl ester] | – | – | 17% | 95% | 18 µM
CCOC(=O)/C=C/C(=O)Nc1nc2ccccc2s1 [IHSF 010, (E)-3-(Benzothiazol-2-ylcarbamoyl)-acrylic acid ethyl ester] | – | – | 56% | 56% | –
CCOC(=O)/C=C/C(=O)Nc1nc(-c2ccccc2)cs1 [IHSF 012, (E)-3-(4-Phenyl-thiazol-2-ylcarbamoyl)-acrylic acid ethyl ester] | – | – | 68% | 86% | 11.3 µM
CCOC(=O)/C=C/C(=O)Nc1ccncc1 [IHSF 020, (E)-3-(Pyridin-4-ylcarbamoyl)-acrylic acid ethyl ester] | – | – | 30% | 53% | 23.5 µM
CCOC(=O)/C=C/C(=O)N(CCc1ccccn1)c1nccs1 [IHSF 112, (E)-3-[(2-Pyridin-2-yl-ethyl)-thiazol-2-yl-carbamoyl]-acrylic acid ethyl ester] | – | – | 13% | 26% | > 25 µM
Cc1csc(NC(=O)/C=C/C(=O)N(C)C)n1 [IHSF 061, (E)-But-2-enedioic acid dimethyl-amide (4-methyl-thiazol-2-yl)-amide] | – | – | 12% | 18% | –
CCOC(=O)/C=C/C(=O)Nc1ccnc(-c2ccccc2C)c1 [IHSF 079, (E)-3-(2-o-Tolyl-pyridin-4-ylcarbamoyl)-acrylic acid ethyl ester] | – | – | 42% | 79% | –
CCOC(=O)/C=C/C(=O)Nc1ncco1 [IHSF 015, (E)-3-(Oxazol-2-ylcarbamoyl)-acrylic acid ethyl ester] | – | – | 0% | 20% | –
CCOC(=O)/C=C/C(=O)Nc1cnc(-c2ccccc2)s1 [IHSF 045, (E)-3-(2-Phenyl-thiazol-5-ylcarbamoyl)-acrylic acid ethyl ester] | – | – | 34% | 53% | –
CC(C)OC(=O)/C=C/C(=O)Nc1nccs1 [IHSF 028, (E)-3-(Thiazol-2-ylcarbamoyl)-acrylic acid isopropyl ester] | – | – | 13% | 41% | –
CCOC(=O)/C=C/C(=O)Nc1nc(-c2ccccn2)cs1 [IHSF 054, (E)-3-(4-Pyridin-2-yl-thiazol-2-ylcarbamoyl)-acrylic acid ethyl ester] | – | – | 22% | 69% | 20.2 µM
CCOC(=O)/C=C/C(=O)Nc1nc(C(=O)OC)c(-c2ccccc2)s1 [IHSF 105, 2-((E)-3 -Ethoxycarbonyl-acryloylamino)-5-phenyl-thiazole-4-carboxylic acid methyl ester] | – | – | 69% | 96% | 10.8 µM
CCOC(=O)/C=C/C(=O)Nc1nc(-c2ccncc2)cs1 [IHSF 056, (E)-3-(4-Pyridin-4-yl-thiazol-2-lcarbamoyl)-acrylic acid ethyl ester] | – | – | 35% | 61% | 19.8 µM
CCOC(=O)/C=C/C(=O)Nc1nc(C(N)=O)c(-c2ccccc2)s1 [IHSF 109, (E)-3-(4-Carbamoyl-5-phenyl-thiazol-2-ylcarbamoyl)-acrylic acid ethyl ester] | – | – | 53% | 88% | 11.2 µM
CCOC(=O)/C=C/C(=O)Nc1nc(-c2cccnc2)cs1 [IHSF 055, (E)-3-(4-Pyridin-3-yl-thiazol-2-ylcarbamoyl)-acrylic acid ethyl ester] | – | – | 27% | 74% | 18.7 µM
O=C(/C=C/c1ncccn1)Nc1nccs1 [IHSF 088, (E)-3-(Pyrimidin-2-yl)-N-(thiazol-2-yl)acrylamide] | – | – | 25% | 31% | –
CCOC(=O)/C=C/C(=O)N(CCc1cn(C)cn1)c1nccs1 [IHSF 108] | – | – | -6% | 89% | 19.6 µM
